Assay results reported in US11332473B2, “Substituted pyrazolo[3,4-d]pyrimidines as Wee1 inhibitors” (NUVATION BIO INC., priority 2019, dated 2022).
pIC50: −log10 of the molar value.

Tests used:
[1] = biological target: WEE1 kinase enzyme (Homo sapiens (Human), UniProt P30291); assay: WEE1 IC50 determination, LanthaScreen Terbium Labeled TR-FRET kinase assay; format: biochemical; conditions: WEE1 enzyme 1 nM, ATP 10 μM
Experimental: IC50 values of compounds against WEE1 kinase enzyme were determined by LanthaScreen™ Terbium Labeled TR-FRET assay. Kinase assays were performed in 1X kinase buffer (#PV6135, Invitrogen, Life Technologies Grand Island, N.Y.) where total reaction volume was 10 μL in low-volume 384-well plates (#4511, Corning). Serially diluted compounds (3-fold) were incubated with WEE1 Enzyme (1 nM) (#PR7373A, Invitrogen, Life Technologies, Grand Island, N.Y.) for 10 min; a mixture of ATP (10 μM) (#A1852, Sigma, St. Louis, Mo.) and fluorescent-PolyGT substrate (200 nM) (#PV3610, Invitrogen, Life Technologies Grand Island, N.Y.) was added and incubated in dark at room temperature for 1 h. After 1 h, 10 μL stop solution containing Terbium labeled antibody (4 nM) (#PV3529, Invitrogen, Life Technologies Grand Island, N.Y.) and EDTA (#E5134, Sigma, St. Louis, Mo.) (20 mM) in TR-FRET dilution buffer (#PV3574, Invitrogen, Life Technologies Grand Island, N.Y.) was added. Readings were taken in a Synergy Neo Plate reader (BioTek, Winooski, Vt.) at single excitation of 340 nm and dual emission at 495 nm and 520 nm respectively.
The % activity of test samples was calculated as (Sample−Min)*100/(Max−Min). [Max: DMSO control, complete reaction with enzyme & DMSO and Min: No enzyme & DMSO].

[2] = tested on: A427 cells; assay: Cytotoxicity assay in A427 cell line (resazurin); format: cell-based; conditions: Homo sapiens, A-427; A427 lung epithelial cell line, 72 hr, inhibition of proliferation
Experimental: A427 (HTB-53; ATCC), a lung epithelial cell line, was seeded in medium (MEM, 41090101; Gibco) at a cell count of 1500 cells per 100 μL per well in a 96 well edge plate (167425; ThermoFisher). Cells were allowed to grow at 37° C. for 24 hr in 5% CO2 environment (culture conditions) in a Nuaire incubator (humidified). Serially diluted test compounds (100 μL) within the desired testing concentration ranges were added to the culture plate and the cells were further incubated in culture conditions for 72 hr. The experiment was terminated at the designated incubation time by replacing the medium with 100 μL of 1 mM of resazurin (R7017; Sigma) prepared in culture medium, and the plates were further incubated in culture conditions for 4-6 hr. Fluorescence was recorded using a multimodal plate reader (Biotek Synergy Neo) at an excitation wavelength of 535 nm and emission wavelength of 590 nm to obtain relative fluorescence units. Data were analysed as follows: the background fluorescence (blank containing only medium) value was subtracted from each reading and normalized with the vehicle control (DMSO treated cells) to obtain percent survival/proliferation. Percent survival was subtracted from 100 to get the percent inhibition of proliferation which was used to calculate IC50 values. Potency of compounds in other cell lines (such as A549, AsPc-1, Panc 10.05, A172, U-87MG) may be determined in an analogous manner.

[3] = biological target: PKMYT1 kinase (Homo sapiens (Human), UniProt Q99640); assay: PKMYT1 IC50 determination, HotSpot Kinase Assay; format: biochemical; conditions: 10 μM ATP, 33P-ATP, Myelin Basic Protein substrate
Experimental: Inhibition of PKMYT1 kinase activity by test compounds was measured by the HotSpot Kinase Assay at Reaction Biology Corporation (Malvern, Pa.). Briefly, Myelin Basic Protein substrate was prepared in Reaction Buffer (20 mM Hepes (pH 7.5), 10 mM MgCl2, 1 mM EGTA, 0.01% Brij35, 0.02 mg/mL BSA, 0.1 mM Na3VO4, 2 mM DTT, 1% DMSO). PKMYT1 kinase was delivered into the substrate solution and gently mixed. Test compounds in 100% DMSO were added into the kinase reaction mixture by Acoustic technology (Echo550; nanoliter range) and incubated for 20 min at room temperature. ^33P-ATP was delivered into the reaction mixture to initiate the reaction. Reactions were carried out at 10 μM ATP. After a 2 hour incubation at room temperature, kinase activity was detected by P81 filter-binding method. […] A nonlinear regression model with a sigmoidal dose response and variable slope within GraphPad Prism (GraphPad Software, San Diego, Calif.) was used to calculate the IC50 value of individual test compounds.

Sequence of PKMYT1 kinase (Q99640 whole entry): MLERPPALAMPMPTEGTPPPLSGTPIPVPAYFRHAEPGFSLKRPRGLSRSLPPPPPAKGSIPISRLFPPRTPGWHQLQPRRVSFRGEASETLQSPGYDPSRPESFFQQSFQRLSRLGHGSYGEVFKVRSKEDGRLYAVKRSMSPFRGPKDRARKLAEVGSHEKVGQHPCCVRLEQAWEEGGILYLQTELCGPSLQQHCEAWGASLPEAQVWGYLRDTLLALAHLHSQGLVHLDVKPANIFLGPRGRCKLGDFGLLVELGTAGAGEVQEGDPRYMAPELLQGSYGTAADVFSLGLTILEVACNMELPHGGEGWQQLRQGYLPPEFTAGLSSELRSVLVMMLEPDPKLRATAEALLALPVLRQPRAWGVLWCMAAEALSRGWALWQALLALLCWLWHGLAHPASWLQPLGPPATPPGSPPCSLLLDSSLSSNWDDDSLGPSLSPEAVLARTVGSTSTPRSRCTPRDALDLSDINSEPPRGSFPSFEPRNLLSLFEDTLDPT
Sequence of WEE1 kinase enzyme (P30291 whole entry): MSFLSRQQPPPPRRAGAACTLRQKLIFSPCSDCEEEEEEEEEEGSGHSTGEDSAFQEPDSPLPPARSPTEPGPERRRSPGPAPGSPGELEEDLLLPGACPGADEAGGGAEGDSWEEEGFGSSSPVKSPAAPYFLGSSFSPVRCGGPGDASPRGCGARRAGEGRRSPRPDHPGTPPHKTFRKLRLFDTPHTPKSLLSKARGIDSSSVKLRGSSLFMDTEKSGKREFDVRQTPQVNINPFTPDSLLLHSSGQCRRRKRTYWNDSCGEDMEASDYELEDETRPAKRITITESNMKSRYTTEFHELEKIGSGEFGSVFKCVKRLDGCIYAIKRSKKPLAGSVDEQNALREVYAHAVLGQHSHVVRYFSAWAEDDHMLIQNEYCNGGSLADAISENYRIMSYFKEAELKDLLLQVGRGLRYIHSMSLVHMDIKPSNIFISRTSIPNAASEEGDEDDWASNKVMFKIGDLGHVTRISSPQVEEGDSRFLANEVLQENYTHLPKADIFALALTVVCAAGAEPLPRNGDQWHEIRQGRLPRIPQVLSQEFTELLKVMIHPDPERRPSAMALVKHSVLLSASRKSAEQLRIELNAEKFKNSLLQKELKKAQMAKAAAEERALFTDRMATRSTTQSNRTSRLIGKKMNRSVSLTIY

pIC50 [1] | pIC50 [3] | Compound | pIC50 [2]
8.30 | 5.26 | CC(C)(F)c1nc(-n2c3nc(Nc4ccc5c(c4)CCNC5(C)C)ncc3c(=O)n2C2CC2)ccc1F [1.5, 2-cyclopropyl-6-((1,1-dimethyl-1,2,3,4-tetrahydroisoquinolin-6-yl)amino)-1-(5-fluoro-6-(2-fluoropropan-2-yl)pyridin-2-yl)-1,2-dihydro-3H-pyrazolo[3,4-d]pyrimidin-3-one] | 5.12
8.10 | 6.12 | N#CC1(c2cccc(-n3c4nc(Nc5ccc6c(c5)CNCC6)ncc4c(=O)n3CC(F)(F)F)n2)CC1 [1.32, 1-(6-(3-oxo-6-(1,2,3,4-tetrahydroisoquinolin-7-ylamino)-2-(2,2,2-trifluoroethyl)-2,3-dihydro-1H-pyrazolo[3,4-d]pyrimidin-1-yl)pyridin-2-yl)cyclopropanecarbonitrile] | 6.06
7.89 | 6.16 | CCn1c(=O)c2cnc(Nc3ccc4c(c3)CCNC4)nc2n1-c1cccc(C2(C#N)CC2)n1 [1.37, 1-(6-(2-ethyl-3-oxo-6-((1,2,3,4-tetrahydroisoquinolin-6-yl)amino)-2,3-dihydro-1H-pyrazolo[3,4-d]pyrimidin-1-yl)pyridin-2-yl)cyclopropane-1-carbonitrile] | 6.18
9.00 |  | CCn1c(=O)c2cnc(Nc3ccc4c(c3)CCNC4(C)C)nc2n1-c1cccc(C2(C#N)CC2)n1 [1.39, 1-(6-(6-(1,1-dimethyl-1,2,3,4-tetrahydroisoquinolin-6-ylamino)-2-ethyl-3-oxo-2,3-dihydro-1H-pyrazolo[3,4-d]pyrimidin-1-yl)pyridin-2-yl)cyclopropanecarbonitrile] | 6.29
8.40 | 6.92 | CCn1c(=O)c2cnc(Nc3ccc4c(c3)CNCC4(C)C)nc2n1-c1cccc(C2(C#N)CC2)n1 [1.40, 1-(6-(6-((4,4-dimethyl-1,2,3,4-tetrahydroisoquinolin-7-yl)amino)-2-ethyl-3-oxo-2,3-dihydro-1H-pyrazolo[3,4-d]pyrimidin-1-yl)pyridin-2-yl)cyclopropane-1-carbonitrile] | 
9.00 |  | CCn1c(=O)c2cnc(Nc3ccc4c(c3)CCNC43CC3)nc2n1-c1cccc(C2(C#N)CC2)n1 [1.42, 1-(6-(6-(2′,3′-dihydro-1^1H-spiro[cyclopropane-1,4′-isoquinoline]-7′-ylamino)-2-ethyl-3-oxo-2,3-dihydro-1H-pyrazolo[3,4-d]pyrimidin-1-yl)pyridin-2-yl)cyclopropanecarbonitrile] | 6.59
8.52 | 5.93 | CC(C)n1c(=O)c2cnc(Nc3ccc4c(c3)CNCC4)nc2n1-c1cccc(C2(C#N)CC2)n1 [1.44, 1-(6-(2-isopropyl-3-oxo-6-((1,2,3,4-tetrahydroisoquinolin-7-yl)amino)-2,3-dihydro-1H-pyrazolo[3,4-d]pyrimidin-1-yl)pyridin-2-yl)cyclopropane-1-carbonitrile] | 6.05
7.74 |  | CCn1c(=O)c2cnc(Nc3ccc4c(c3)CCNC4(C)C)nc2n1-c1ccnc(C2(C#N)CC2)c1 [1.63, 1-(4-(6-((1,1-dimethyl-1,2,3,4-tetrahydroisoquinolin-6-yl)amino)-2-ethyl-3-oxo-2,3-dihydro-1H-pyrazolo[3,4-d]pyrimidin-1-yl)pyridin-2-yl)cyclopropane-1-carbonitrile] | 4.77
7.82 | 5.54 | CC(C)n1c(=O)c2cnc(Nc3ccc4c(c3)CCNC4)nc2n1-c1ccnc(C2(C#N)CC2)c1 [1.67, 1-(4-(2-isopropyl-3-oxo-6-(1,2,3,4-tetrahydroisoquinolin-6-ylamino)-2,3-dihydro-1H-pyrazolo[3,4-d]pyrimidin-1-yl)pyridin-2-yl)cyclopropanecarbonitrile] | 5.59
8.70 | 5.38 | CCn1c(=O)c2cnc(Nc3ccc4c(c3)CNCC4)nc2n1-c1cccc(C2(CF)CC2)n1 [1.86, 2-ethyl-1-(6-(1-(fluoromethyl)cyclopropyl)pyridin-2-yl)-6-((1,2,3,4-tetrahydroisoquinolin-7-yl)amino)-1,2-dihydro-3H-pyrazolo[3,4-d]pyrimidin-3-one] | 6.16
8.52 | 5.16 | CC(C)n1c(=O)c2cnc(Nc3ccc4c(c3)CCNC4)nc2n1-c1cccc(C2(CF)CC2)n1 [1.91, 1-(6-(1-(fluoromethyl)cyclopropyl)pyridin-2-yl)-2-isopropyl-6-((1,2,3,4-tetrahydroisoquinolin-6-yl)amino)-1,2-dihydro-3H-pyrazolo[3,4-d]pyrimidin-3-one] | 
8.10 | 4.87 | CC(C)n1c(=O)c2cnc(Nc3ccc4c(c3)CNCC4)nc2n1-c1ccc(F)c(C(C)(C)O)n1 [1.250, 1-(5-fluoro-6-(2-hydroxypropan-2-yl)pyridin-2-yl)-2-isopropyl-6-((1,2,3,4-tetrahydroisoquinolin-7-yl)amino)-1,2-dihydro-3H-pyrazolo[3,4-d]pyrimidin-3-one] | 
8.15 | 5.17 | CC(C)n1c(=O)c2cnc(Nc3ccc4c(c3)CCNC4(C)C)nc2n1-c1ccc(F)c(C(C)(C)O)n1 [1.251, 6-((1,1-dimethyl-1,2,3,4-tetrahydroisoquinolin-6-yl)amino)-1-(5-fluoro-6-(2-hydroxypropan-2-yl)pyridin-2-yl)-2-isopropyl-1,2-dihydro-3H-pyrazolo[3,4-d]pyrimidin-3-one] | 4.91
6.85 | 5.45 | CC(C)n1c(=O)c2cnc(Nc3ccc4c(c3)CNCC43CC3)nc2n1-c1ccc(F)c(C(C)(C)O)n1 [1.254, 6-((2′,3′-dihydro-1′H-spiro[cyclopropane-1,4′-isoquinolin]-7′-yl)amino)-1-(5-fluoro-6-(2-hydroxypropan-2-yl)pyridin-2-yl)-2-isopropyl-1,2-dihydro-3H-pyrazolo[3,4-d]pyrimidin-3-one] | 
8.05 | 5.34 | CCn1c(=O)c2cnc(Nc3ccc4c(c3)CCNC4)nc2n1-c1ccc(F)c(C(C)(C)O)n1 [1.261, 2-ethyl-1-(5-fluoro-6-(2-hydroxypropan-2-yl)pyridin-2-yl)-6-((1,2,3,4-tetrahydroisoquinolin-6-yl)amino)-1,2-dihydro-3H-pyrazolo[3,4-d]pyrimidin-3-one] | 6.05
8.10 | 4.77 | CCn1c(=O)c2cnc(Nc3ccc4c(c3)CNCC4)nc2n1-c1ccc(F)c(C(C)(C)O)n1 [1.262, 2-ethyl-1-(5-fluoro-6-(2-hydroxypropan-2-yl)pyridin-2-yl)-6-((1,2,3,4-tetrahydroisoquinolin-7-yl)amino)-1,2-dihydro-3H-pyrazolo[3,4-d]pyrimidin-3-one] | 
 | 5.13 | CC(C)n1c(=O)c2cnc(Nc3ccc4c(c3)CNCC4)nc2n1-c1nc(C(C)(C)C#N)ccc1F [1.322, 2-(5-fluoro-6-(2-isopropyl-3-oxo-6-(1,2,3,4-tetrahydroisoquinolin-7-ylamino)-2,3-dihydro-1H-pyrazolo[3,4-d]pyrimidin-1-yl)pyridin-2-yl)-2-methylpropanenitrile] | 
8.30 |  | CCn1c(=O)c2cnc(Nc3ccc4c(c3)CCNC4(C)C)nc2n1-c1nc(C(C)(C)C#N)ccc1F [1.335, 2-(6-(6-(1,1-dimethyl-1,2,3,4-tetrahydroisoquinolin-6-ylamino)-2-ethyl-3-oxo-2,3-dihydro-1H-pyrazolo[3,4-d]pyrimidin-1-yl)-5-fluoropyridin-2-yl)-2-methylpropanenitrile] | 5.32
